The values that follow come from patent US8461183B2, “PPAR agonist compounds, preparation and uses” (Genfit, priority 2008, dated 2013).

The subject of assay [1] is 3 PPAR isoforms. Put plainly: PPAR agonist properties of compound 1, different method and equipment (not described). How it is done: The measured activities differ depending on the compound tested and the compounds according to the invention are also observed to have varying selectivity with respect to the various isoforms of hPPAR: • Certain compounds according to the invention are selective for a subtype of PPAR. […] Compound 1 of the invention was also tested for its PPAR agonist properties. […] As the measurements obtained for compound 1 were carried out according to a different method and with different equipment, relative to the other 53 compounds in the examples, the corresponding results are not presented in Table 8-1 above.

In assay [2] the test system is PPARδ target genes (PDK4, CPT1b, UCP2) in murine myocytes. Put plainly: Expression of PPARδ target genes in murine myocytes (differentiated C2C12 cells). It is filed as cell-based. The conditions noted are these: 24 hours, Cpd 7 at 0.1, 1, 10 μM, Cpd 24 at 0.2, 2, 20 μM, normalized to 36B4. As for the experimental part:
The PPARδ agonist properties previously measured in vitro were evaluated by measuring, in murine myocytes, the expression of genes involved in lipid and carbohydrate metabolism and energy expenditure (PDK4, CPT1b, UCP2). Regulation of expression of these genes, in this cell type, is a direct consequence of the activation of PPARδ by the compounds according to the invention. The greater the increase in expression of the genes, the more the compound according to the invention is a stimulator of metabolism in muscle cells (Dressel U et al., 2003).
The C2C12 murine cells (from ECACC) are cultivated in DMEM medium (Gibco; 41965-039) supplemented with 1% L-glutamine (Gibco; 25030), 1% penicillin/streptomycin (VWR; BWSTL0022/100) and 10% decomplemented fetal calf serum (FCS. Gibco; 10270-106).
The cells are seeded in 24-well plates at a density of 50×10^3 cells/well. At confluence, the medium is replaced with a differentiation medium (base culture medium supplemented with 2% of horse serum (Gibco; 26050-088)) then culture is continued at 37° C. and 5% CO2 for 7 days in order to permit differentiation of the myoblasts into myocytes.
After 6 days of differentiation, the cells are put in a deprivation medium (base culture medium without serum) for 6 hours. The cells are then treated with the compounds according to the invention in the deprivation medium. The compounds according to the invention were tested at doses of 0.1, 1, 10 μM and 0.2, 2 and 20 μM respectively. The compounds according to the invention were dissolved in dimethylsulfoxide (DMSO, Sigma; D5879). The cells are treated for 24 hours at 37° C., 5% CO2. The effects for the compounds tested were compared with the effect of DMSO alone at a concentration of 0.1%.
These procedures were performed on the cells essentially as described in Example 10 (point c) of the Protocols.
The following primer pairs specific to the genes investigated were used: […]

The target of assay [3] is T1, hPPARγ (Homo sapiens, UniProt P37231).
T1 construct: corresponding to the DEF domains (structural elements of the promoter of the PPARs: D=hinge, EF=ligand fixation domain and AF2 fixation site); expressed in transfected cells; host or cells: COS-7 (monkey kidney fibroblasts)
T1 sequence (P37231 238-503 limits assumed): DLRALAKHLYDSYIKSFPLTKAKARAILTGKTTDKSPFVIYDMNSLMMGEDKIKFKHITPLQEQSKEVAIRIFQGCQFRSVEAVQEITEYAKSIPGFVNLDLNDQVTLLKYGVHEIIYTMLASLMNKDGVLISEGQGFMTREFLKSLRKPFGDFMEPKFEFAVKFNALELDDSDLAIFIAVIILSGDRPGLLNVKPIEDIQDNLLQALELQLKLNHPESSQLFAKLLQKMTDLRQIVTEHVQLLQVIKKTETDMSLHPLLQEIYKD
Put plainly: Gal4-hPPARγ chimera transactivation (luciferase) in COS-7 cells. The conditions noted are these: 24 hours; for EC50: luciferase, read-out: PPARγ EC50; for Emax: relative to maximum activation obtained with rosiglitazone, read-out: PPARγ TOP % (maximum activation). It is filed as cell-based. The method, boiled down:
(§1)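 COS-7 cells transfected with Gal4-DBD fused to human PPARγ or PPARδ DEF (hinge/ligand-binding) domain plus Gal4(RE)_TkpGL3 luciferase reporter (1:10).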

Assay [4] concerns the target T2, hPPARδ (Homo sapiens, UniProt Q03181).
T2 construct: corresponding to the DEF domains (structural elements of the promoter of the PPARs: D=hinge, EF=ligand fixation domain and AF2 fixation site); expressed in transfected cells; host or cells: COS-7 (monkey kidney fibroblasts)
T2 sequence (Q03181 211-439 limits assumed): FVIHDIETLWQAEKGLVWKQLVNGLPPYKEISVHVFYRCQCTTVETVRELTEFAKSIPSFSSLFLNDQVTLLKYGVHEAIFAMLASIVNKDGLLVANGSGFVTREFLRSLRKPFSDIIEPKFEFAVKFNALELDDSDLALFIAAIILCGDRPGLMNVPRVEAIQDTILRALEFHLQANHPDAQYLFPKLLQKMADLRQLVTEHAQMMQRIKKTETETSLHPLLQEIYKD
Nature of the assay: Gal4-hPPARδ chimera transactivation (luciferase) in COS-7 cells. It is filed as cell-based. The conditions noted are these: for EC50 / Emax: COS-7 cells, Gal4-hPPARδ, 24 hours; for EC50: luciferase, read-out: PPARδ EC50; for Emax: relative to maximum activation obtained with GW501516, read-out: PPARδ TOP % (maximum activation). The method, boiled down:
as §1

Assay [5] deals with T3, hPPARα (Homo sapiens, UniProt Q07869).
T3 construct: corresponding to the DEF domains (structural elements of the promoter of the PPARs: D=hinge, EF=ligand fixation domain and AF2 fixation site); expressed in transfected cells; host or cells: COS-7 (monkey kidney fibroblasts)
T3 sequence (Q07869 239-466 limits assumed): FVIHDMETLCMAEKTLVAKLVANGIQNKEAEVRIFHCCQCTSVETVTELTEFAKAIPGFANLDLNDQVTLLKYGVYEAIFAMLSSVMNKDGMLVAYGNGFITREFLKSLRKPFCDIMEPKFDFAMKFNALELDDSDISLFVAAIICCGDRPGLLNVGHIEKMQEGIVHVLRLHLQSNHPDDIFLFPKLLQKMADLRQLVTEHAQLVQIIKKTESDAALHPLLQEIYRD
Nature of the assay: Gal4-hPPARα chimera transactivation (luciferase) in COS-7 cells. It is filed as cell-based. The note with it: COS-7 cells, Gal4-hPPARα, 24 hours; for EC50: luciferase, read-out: PPARα EC50; for Emax: relative to maximum activation obtained with fenofibric acid, read-out: PPARα TOP % (maximum activation). The method, boiled down:
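COS-7 cells transiently co-transfected with Gal4 DBD–human PPARα, γ or δ DEF-domain chimeras plus Gal4(RE)_TkpGL3 luciferase reporter (1/10), seeded serum-free, then compound-treated 24 h at 37 °C in 1% Ultroser. Luciferase read after lysis; EC50 and TOP % relative to maximal activation by fenofibric acid (α), rosiglitazone (γ) or GW501516 (δ).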

Assay [6] concerns 3T3-L1 murine pre-adipocytes. Nature of the assay: PPARγ functional effect: adipogenesis in 3T3-L1 pre-adipocytes (triglycerides, adiponectin). Format: cell-based, Mus musculus. The conditions noted are these: 3T3-L1, 9 days of treatment, 30 nM to 30 μM. As for the experimental part:
The functional effect of activation of PPARγ is evaluated in vitro on a line of pre-adipocyte cells 3T3-L1 (Thompson G M et al., 2004) by measuring the concentration of intracellular triglycerides and the concentration of adiponectin secreted in the culture medium after 9 days of treatment with the compounds according to the invention.
At confluence, the cells were then rinsed with PBS (Phosphate Buffered Saline solution) and the culture medium was replaced with DMEM 4.5 g/L glucose (10% FCS, 1% L-glutamine, 100 units/mL penicillin and 100 μg/mL streptomycin, 0.25 mM) containing a cocktail for initiation of adipocyte differentiation (IBMX (3-isobutyl-1-methylxanthine Sigma; 17018), 0.1 μM dexamethasone (Sigma; D1756) and 0.4 μM of insulin (Sigma; I2643). The cells were also treated with the compounds according to the invention (1 μL of solubilized compound/mL of medium, 200 μL per well).
After 2 days of incubation, the cells were washed with PBS and the differentiation medium was replaced with DMEM 4.5 g/L of glucose supplemented with 10% FCS, 1% L-glutamine, 100 units/mL penicillin and 100 μg/mL streptomycin, 0.4 μM insulin, and the compounds according to the invention for the purpose of completing cellular differentiation and obtaining adipocytes. The medium was changed every 2 days until total differentiation. After culture for 9 days, the treatment was stopped by withdrawing the culture medium, which was stored for assaying secreted adiponectin. The cells were then washed twice with PBS and placed in isopropanol for membrane permeabilization. The content of intracellular triglycerides was evaluated immediately.
Quantification of intracellular triglycerides was performed with the “Triglyceride Enzymatic PAP1000” kit (bioMérieux; 61238) according to the supplier's recommendations. Secreted adiponectin was measured in the culture medium using the “Mouse Adiponectin/Acrp30 Elisa Kit” kit (R&D Systems; DY1119) according to the supplier's recommendations.

Regarding `COc1nc(-c2ccccc2)ccc1COc1ccc(OC(C)(C)C(=O)O)cc1` [Cpd 1, 2-(4-((2-methoxy-6-phenylpyridin-3-yl)methoxy)phenoxy)-2-methyl-propanoic acid], the “selectivities for the 3 PPAR isoforms” value in assay [1] was “comparable selectivities for the 3 PPAR isoforms”.

On to `CC(C)(C)Oc1nc(-c2ccccc2)ccc1COc1ccc(OCC(=O)O)cc1` [Cpd 7], for which, in assay [2], the “expression of CPT1b” value is “significant effects of stimulating expression”, the “expression of PDK4” value is “significant effects of stimulating expression” and the “expression of UCP2” value was “significant effects of stimulating expression”. Moreover, in assay [3], the EC50 was found to be 46.8 µM and the Emax came out at 20.6%. In addition, in assay [4], the EC50 came to 0.55 µM and the Emax was determined as 96.5%. The “selectivity among hPPAR isoforms (hPPARδ)” value in assay [4] (Gal4-hPPAR chimeras, COS-7) was “selective with respect to hPPARδ”. Further, in assay [5], the EC50 was 39.6 µM and the Emax amounted to 28.9%.

`COc1nc(-c2ccc(C(F)(F)F)cc2)ccc1CNc1ccc(CCC(=O)O)cc1` [Cpd 36, 3-(4-(((2-methoxy-6-(4-(trifluoromethyl)phenyl)pyridin-3-yl)methyl)amino)-phenyl)propanoic acid]: in assay [3], the EC50 worked out at 1.52 µM and the Emax is 123%. Also, in assay [4], the EC50 came to 0.595 µM and the Emax is 93.9%. Also, in assay [6], the “accumulation of triglycerides in adipocytes” value is recorded as “dose-dependent stimulation” and the secretion of adiponectin entry is “dose-dependent stimulation”. In assay [5], the EC50 was found to be 0.304 µM and the Emax came to 78%.

On to `CC#CC(CC(=O)O)c1ccc(OCc2ccc(-c3ccccc3)nc2OC)cc1` (stereo not shown) [Cpd 53, 3-(4-((2-methoxy-6-phenylpyridin-3-yl)methoxy)phenyl)hex-4-ynoic acid], for which the EC50 in assay [3] came out at 1.01 µM; in assay [4] it was 10.3 µM; in assay [5] it was 5.14 µM. The Emax in assay [3] worked out at 78%; in assay [4] it was 9.86%; in assay [5], 48.6%.

Consider `CC(C)Oc1nc(-c2ccccc2)ccc1CNc1ccc(CCC(=O)O)cc1` [Cpd 54, 3-(4-(((2-isopropyloxy-6-phenylpyridin-3-yl)methyl)amino)phenyl)propanoic acid], for which the EC50 in assay [3] was found to be 4.85 µM; in assay [4], 3.2 µM; in assay [5], 7.97 µM. In addition, the Emax in assay [3] stood at 42.2%; in assay [4] it was 92.1%; in assay [5] it was 34.5%.

The term EC50 denotes the concentration at which the effect is half-maximal.
